{
  "source": "paper PMC2864911",
  "about": "“Effect of Common Buffers and Heterocyclic Ligands on the Binding of Cu(II) at the Multimetal Binding Site in Human Serum Albumin” (Bioinorganic Chemistry and Applications, 2010)",
  "key": {"[1]": {"biological_target": "T1, Multimetal Binding Site (MBS) of Human Serum Albumin (HSA) (Homo sapiens, UniProt P02768)", "T1 construct": "purchased Sigma", "T1 sequence (P02768 25-609)": "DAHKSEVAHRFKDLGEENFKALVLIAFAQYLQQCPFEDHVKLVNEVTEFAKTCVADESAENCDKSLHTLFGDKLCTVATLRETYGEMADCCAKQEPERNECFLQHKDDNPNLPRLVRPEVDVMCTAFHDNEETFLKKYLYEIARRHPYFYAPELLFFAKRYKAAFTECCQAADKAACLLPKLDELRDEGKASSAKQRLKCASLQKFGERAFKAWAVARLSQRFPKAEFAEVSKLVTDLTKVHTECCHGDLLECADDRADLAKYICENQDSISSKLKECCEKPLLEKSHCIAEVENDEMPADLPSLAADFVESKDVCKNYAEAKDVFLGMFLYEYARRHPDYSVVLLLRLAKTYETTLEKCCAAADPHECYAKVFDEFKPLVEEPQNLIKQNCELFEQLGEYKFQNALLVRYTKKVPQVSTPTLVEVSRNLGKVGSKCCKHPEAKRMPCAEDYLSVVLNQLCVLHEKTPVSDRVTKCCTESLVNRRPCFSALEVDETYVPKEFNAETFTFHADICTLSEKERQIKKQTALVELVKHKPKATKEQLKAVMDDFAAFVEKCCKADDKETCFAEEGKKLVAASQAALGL", "assay": "Visible-range CD titration of Cu(II) binding at MBS of HSA", "conditions": "for log K app (apparent binding constant of the Cu(II)-MBS complex): 100 mM ligand solution, pH 7.4, 25°C, HSA 0.3–0.5 mM, binary species only assumed; for CI (competitivity index): Cu(II) and Z = 1 μM, HSA = 0.5 mM; for CI (competitivity index) / log K e (MBS + Cu(L) = Cu(MBS)(L)) / log K T (Cu(MBS) + Cu(L) = Cu(MBS)(L) + Cu^2+): pH 7.4; for log K 111 (Cu^2+ + L + MBS = Cu(MBS)(L)): pH 7.4, conditional constant, ternary complex model; for log K e (MBS + Cu(L) = Cu(MBS)(L)): log K 111 = log K 11 + log K e; for log K T (Cu(MBS) + Cu(L) = Cu(MBS)(L) + Cu^2+): log K T = log K 111 − log K 11 − log K app (NaCl)", "procedure": "The CD spectra were recorded at 25°C on a Jasco J-715 spectropolarimeter (JASCO, Japan Spectroscopic Co., Hiroshima, Japan), over the range of 300–800 nm, using a 1 cm cuvette. The spectra are expressed in terms of Δε = ε l − ε r, where ε l and ε r are molar absorption coefficients for left and right circularly polarized light, respectively. In buffer experiments the solutions contained 100 mM Hepes, Tris, Sodium Phosphate, or NaCl, at pH 7.4.\nHSA was dissolved at 0.3–0.5 mM in either a 100 mM Hepes, Tris, Sodium Phosphate buffers, pH 7.4, or in an unbuffered 100 mM NaCl solution. The pH of both types of samples was controlled to remain in the 7.38–7.42 corridor and adjusted with submicroliter amounts of concentrated HCl or NaOH when necessary. Concentrations of stock solutions of HSA were estimated spectrophotometrically at 279 nm and by Cu(II) titrations. The fractional abundance of NTS in HSA was measured by careful CD titrations using calibrated Cu(II) solutions.\nWe chose sodium phosphate, Tris and Hepes as the most common substances used for buffering protein solutions at pH 7.4. Their effect on Cu(II) binding to HSA was studied at a 0.1 M concentration stage versus unbuffered 0.1 M NaCl, used as a control solution. The choice of the latter was dictated by the presence of 0.1 M chloride in the blood serum. The pH of the NaCl samples was controlled by additions of small quantities of concentrated HCl or NaOH solutions, when necessary. […] The titrations were monitored by CD spectroscopy, analogously to our previous studies.\nA typical titration is presented on Figure 1.\nApparent binding constants (K app) for Cu(II)-MBS complexes in the presence of buffers were obtained from titrations presented in Figure 2. Table 1 contains also further constants, calculated relative to the Cu(II)-MBS interaction in NaCl, taken as corresponding to a 100% binary complex formation.\nFirst, the effects of competition of buffers for Cu(II) were accounted for Literature protonation and Cu(II) binding constants of Hepes, Tris, and phosphate ions were used in these calculations. […] The reactions defining these constants are provided in the footnotes of Table 1.\nBriefly, K 111 describes the overall formation of a ternary species, K 11 is the literature binding constant of the Cu(II) complex of a buffer, K e corresponds to the ternary complex formation by addition of buffer-complexed Cu(II) to MBS, and K T is the equilibrium constant of the formation of the ternary complex in the reaction of two binary complexes, thus featuring the tendency of binary components to form a ternary species. All these constants, except for K 11, are conditional in respect to the pH value of 7.4."}, "[2]": {"conditions": "literature values ref 30–32; cited from earlier work"}, "HSA": {"system": "HSA", "conditions": "cited from earlier work"}},
  "data": [
    {"smiles": "O=S(=O)(O)CCN1CCN(CCO)CC1", "note": "[Hepes, N-2-hydroxyethylpiperazine-N′-2-ethanesulfonic acid]", "values": [
      {"measurement": "log K app (apparent binding constant of the Cu(II)-MBS complex)", "setting": "[1]", "result": "4.45(5)"},
      {"measurement": "CI (competitivity index)", "setting": "[1]; [L] = 0.5 mM", "result": 7.71},
      {"measurement": "CI (competitivity index)", "setting": "[1]; [L] = 100 mM", "result": 9.27},
      {"measurement": "log K 111 (Cu^2+ + L + MBS = Cu(MBS)(L))", "setting": "[1]", "result": "7.54(5)"},
      {"measurement": "log K e (MBS + Cu(L) = Cu(MBS)(L))", "setting": "[1]", "result": 4.32},
      {"measurement": "log K T (Cu(MBS) + Cu(L) = Cu(MBS)(L) + Cu^2+)", "setting": "[1]", "result": "−0.28"},
      {"measurement": "log K 11 (Cu^2+ + L = Cu(L))", "setting": "[2]", "result": 3.22}
    ]},
    {"smiles": "[Cl-].[Na+]", "note": "[NaCl]", "values": [
      {"measurement": "log K app (apparent binding constant of the Cu(II)-MBS complex)", "setting": "[1]", "result": "4.60(3)"},
      {"measurement": "CI (competitivity index)", "setting": "[1]; [L] = 0.5 mM", "result": 7.62},
      {"measurement": "CI (competitivity index)", "setting": "[1]; [L] = 100 mM", "result": 7.62}
    ]},
    {"smiles": "O=P(O)(O)O", "note": "[Phosphate, sodium phosphate]", "values": [
      {"measurement": "log K app (apparent binding constant of the Cu(II)-MBS complex)", "setting": "[1]", "result": "5.17(7)"},
      {"measurement": "CI (competitivity index)", "setting": "[1]; [L] = 0.5 mM", "result": 8.04},
      {"measurement": "CI (competitivity index)", "setting": "[1]; [L] = 100 mM", "result": 10.13},
      {"measurement": "log K 111 (Cu^2+ + L + MBS = Cu(MBS)(L))", "setting": "[1]", "result": "8.2(1)"},
      {"measurement": "log K e (MBS + Cu(L) = Cu(MBS)(L))", "setting": "[1]", "result": 5.00},
      {"measurement": "log K T (Cu(MBS) + Cu(L) = Cu(MBS)(L) + Cu^2+)", "setting": "[1]", "result": "+0.40"},
      {"measurement": "log K 11 (Cu^2+ + L = Cu(L))", "setting": "[2]", "result": 3.20}
    ]},
    {"smiles": "NC(CO)(CO)CO", "note": "[Tris, 2-amino-2(hydroxymethyl)-1,3-propanediol]", "values": [
      {"measurement": "log K app (apparent binding constant of the Cu(II)-MBS complex)", "setting": "[1]", "result": "4.23(6)"},
      {"measurement": "CI (competitivity index)", "setting": "[1]; [L] = 0.5 mM", "result": 7.74},
      {"measurement": "CI (competitivity index)", "setting": "[1]; [L] = 100 mM", "result": 9.42},
      {"measurement": "log K 111 (Cu^2+ + L + MBS = Cu(MBS)(L))", "setting": "[1]", "result": "8.22(5)"},
      {"measurement": "log K e (MBS + Cu(L) = Cu(MBS)(L))", "setting": "[1]", "result": 4.17},
      {"measurement": "log K T (Cu(MBS) + Cu(L) = Cu(MBS)(L) + Cu^2+)", "setting": "[1]", "result": "−0.43"},
      {"measurement": "log K 11 (Cu^2+ + L = Cu(L))", "setting": "[2]", "result": 4.05}
    ]},
    {"smiles": "CC(=O)CC(c1ccccc1)c1c(O)c2ccccc2oc1=O", "note": "(stereo not shown) [War, warfarin]", "values": [
      {"measurement": "HSA binding constant", "setting": "HSA", "result": 330000, "unit": "M⁻¹"}
    ]}
  ]
}
